Measured values reported in patent publication US10781203B2, “Nontoxic compounds for the treatment and prevention of herpesvirus infections” (The Penn State Research Foundation, priority 2016, dated 2020).

Columns and labels:
[1] = test system: HCMV-infected cells; experiment: Western blot analysis of HCMV-infected cell lysates; assay type: cell-based, human; conditions: MOI=3, 10 μM
Experimental: Total cell lysates were prepared from uninfected or HCMV-infected cells (MOI=3) at the indicated time points by harvesting lystates in radioimmunoprecipitation assay buffer (1% NP-40, 1% sodium deoxycholate, 0.1% sodium dodecyl sulfate [SDS], 0.15 M NaCl, 10 mM sodium phosphate [pH 7.2], 2 mM EDTA, 50 mM NaF, 1 mM phenylmethylsulfonyl fluoride, […], 0.2 mM Na3VO4, 1 μg/ml leupeptin). After centrifugation, the supernatant was collected and stored at −80° C. The protein was quantified by a Bradford assay (Bio-Rad) and samples were analyzed by SDS-PAGE gel electrophoresis and immunoblotting on nitrocellulose or PVDF membrane blocked with 5% milk or 5% BSA in tris-buffered saline (0.1% tween). Antibody dilutions were in accordance with manufacturer's instructions.

[2] = test system: HSV-1; experiment: Virus titer analysis of HSV; assay type: cell-based; conditions: MOI=3; harvested at 24 hpi
Text: FIGS. 10A-10B show data to provide support for Retro94 and derivatives being effective against other herpesviruses. […] Samples were harvested at 24 hpi. Representative data shown are from independent replicates. FIG. 10B provides a table showing low nanomolar EC50 values of Retro94F against other herpesviruses.

[3] = test system: cytoplasmic viral assembly compartment (cVAC); experiment: cVAC morphology / localization of viral and cellular markers by fluorescence microscopy; assay type: cell-based, human
Experimental: Coverslips or chamber slides containing either uninfected or HCMV-infected cells were washed in phosphate-buffered saline (PBS) and fixed in 2% paraformaldehyde for 15 min at room temperature. Cells were blocked in PBS containing 10% human serum, 0.5% Tween-20, and 5% glycine. 0.1% Triton-X 100 was added for permeabilization. Primary and secondary antibodies as specified in the antibody section were diluted in blocking buffer. Nuclei were stained with DAPI prior to mounting with ProLong Diamond Antifade Mountant (ThermoScientific). For live-cell experiments using the pp28-mCherry virus, cells were grown on glass bottom microwell dishes (MatTek Corporation) and nuclei were stained with NucBlue Live Cell Stain ReadyProbes reagent (ThermoScientific). All images were acquired using a C2+ Confocal Microscope System (Nikon). Images were processed using NIS elements software. Images shown are volume renderings of Z-stacks.

[4] = test system: MCMV; experiment: Viral titers of MCMV-infected fibroblasts; assay type: cell-based, mouse; conditions: treated at 2 hpi; 6 dpi (FIG. 7C)
Experimental: (§1) FIG. 7A is a graph showing viral titers at 15 dpi of fibroblasts infected with various strains of HCMV (MOI=0.05) and treated with DMSO or Retro94 at 2 hpi. Media was changed and fresh Retro94 was added at 6 dpi. Bright field images representing CPE of above infections shown at right. FIG. 7B show HCMV-infected ARPE-19 cells (TB40, MOI=3) at 21 dpi treated with DMSO or Retro94 ([…]). Infected cells detected by monitoring mCherry (red) expressed by TB40 virus. Scale bars: 1 mm. The table below images show number of foci detected, average area and standard error of the mean. P<0.00001. […]
(§2) For MCMV growth curve analysis, samples were titrated on NIH 3T3 cells and titers were calculated using the 50% tissue culture infective dose method. Both HCMV virus stocks and samples for growth curves were titrated by serial dilutions on MRC5 cells and quantified by the immunological detection of immediate-early proteins as previously described (Britt W J. Human cytomegalovirus: propagation, quantification, and storage. Curr Protoc Microbiol. 2010; Chapter 14: Unit 14E.3). The numbers of stained nuclei were acquired on a Nikon Eclipse Ti Inverted microscope and fluorescent nuclei were quantified using the NIS Elements Software. […] The number and size of foci were quantified using NIS Elements software.

[5] = test system: cytoplasmic viral assembly compartment (cVAC); experiment: Electron microscopy of HCMV-infected cells; assay type: cell-based, human; conditions: MOI=3; 96 hpi; treated at 2 hpi
Experimental: Cells were seeded on 60 mm Permanox tissue culture dishes (Nalge Nunc International). Infections were done at an MOI of 3 for 96 hours. Cells were first washed with PBS 3× followed by fixation for 1 hour at 4° C. in fixation buffer (0.5% [vol/vol] glutaraldehyde, 0.04% [wt/vol] paraformaldehyde, 0.1 M sodium cacodylate). Cells were then processed for EM by the Microscopy Imaging Facility (Pennsylvania State University College of Medicine). Briefly, the fixed samples were washed three times with 0.1 M sodium cacodylate, followed by postfixation in 1% osmium −1.5% potassium ferrocyanide overnight at 4° C. Samples were then washed 3 times in 0.1 M sodium cacodylate, dehydrated with ethanol, and embedded in Epon 812 for staining and sectioning. Images were acquired using a JEOL JEM-1400 Digital Capture transmission electron microscope.

[6] = test system: Towne, TB40, Merlin and Toledo strains of HCMV; experiment: Viral titers of fibroblasts infected with various strains of HCMV; assay type: cell-based, Human cytomegalovirus (HCMV); conditions: all four strains; MOI=0.05; treated at 2 hpi; 15 dpi
Experimental: as §1, §2

## Cc1nc(-c2ccc(C3N(C)c4ccccc4C(=O)N3c3ccccc3)s2)cs1 (stereo not shown) [Retro94, 1-Methyl-2-(5-(2-methylthiazol-4-yl)thiophen-2-yl)-3phenyl-2,3-dihydroquinazolin-4(1H)-one]
[1]
  STX5 protein level during infection: did not reach the same level as observed in control-treated samples
[1]; 24-96 hpi
  steady state levels of immediate-early and late viral proteins: not affected
[2]
  decrease of levels of HSV-1: ~90%
[3]; 96 hpi, 10 μM
  localization of viral proteins pp28, pp150 and glycoprotein B: dispersed throughout the cytoplasm and were no longer present in the cVAC
[3]; MOI=3, 96 hpi
  localization of GS27 and GS28: mostly remained in a perinuclear localization
  localization of markers of Golgi (GM130), TGN (p230) and endosomes (EEA1): retained their perinuclear localization
  normal cVAC morphology: did not form
[3]; added at 2 or 24 hpi, imaged at 96 hpi
  cVAC as detected by pp28-mCherry: no area representing a cVAC was detected
[3]; added at 48 hpi, imaged at 96 hpi
  pp28 localization (pp28-mCherry): largely dispersed throughout the cell
[3]; added at 72 hpi, imaged at 96 hpi
  perinuclear pp28 regions reminiscent of the cVAC: more prominent
[4]
  decrease of MCMV titer: ~3 logs
[5]
  capsids in perinuclear region (EM): largely devoid of capsids at all stages of maturation
[6]
  viral titers lower in the presence of compound: two to three
